{"source": "patent US4239752A", "about": "“O-Demethylseldomycin factor 5 derivatives” (Abbott Laboratories, priority 1979, dated 1980)", "key": {"[1]": {"system": "Pseudomonas aeruginosa KY-8512", "assay": "in vitro antibiotic activity, two fold dilution test (MIC)", "format": "cell-based", "conditions": "KY8512, Streptomycin Assay Agar with yeast extract, pH 7.9, inoculum approx. 1×10^5", "description": "(§1) The in vitro antibiotic activity is determined by a two fold dilution test using Streptomycin Assay Agar with yeast extract (at pH 7.9). The inoculum of approximately 1×10^5 of the indicated test organism is delivered by a multiple inoculator. The minimum inhibitory concentrations for a representative compound, O-demethyl-3'-deoxyseldomycin factor 5 is set forth in Table II. The minimum inhibitory concentrations are expressed in micrograms per milliliter."}, "[2]": {"system": "Bacillus subtilis U. of Ill. 10707", "assay": "in vitro antibiotic activity, two fold dilution test (MIC)", "format": "cell-based", "conditions": "Streptomycin Assay Agar with yeast extract, pH 7.9, inoculum approx. 1×10^5", "description": "as §1"}, "Escherichia coli R5": {"system": "Escherichia coli R5", "assay": "in vitro antibiotic activity, two fold dilution test (MIC)", "format": "cell-based", "conditions": "Streptomycin Assay Agar with yeast extract, pH 7.9, inoculum approx. 1×10^5", "description": "as §1"}, "Eschericha coli ATCC 26": {"system": "Eschericha coli ATCC 26", "assay": "in vitro antibiotic activity, two fold dilution test (MIC)", "format": "cell-based", "conditions": "Streptomycin Assay Agar with yeast extract, pH 7.9, inoculum approx. 1×10^5", "description": "as §1"}, "[3]": {"system": "Proteus stuartii ATCC 25825", "assay": "in vitro antibiotic activity, two fold dilution test (MIC)", "format": "cell-based", "conditions": "Streptomycin Assay Agar with yeast extract, pH 7.9, inoculum approx. 1×10^5", "description": "as §1"}, "[4]": {"system": "Pseudomonas aeruginosa PST", "assay": "in vitro antibiotic activity, two fold dilution test (MIC)", "format": "cell-based", "conditions": "Streptomycin Assay Agar with yeast extract, pH 7.9, inoculum approx. 1×10^5", "description": "as §1"}, "Escherichia coli R19": {"system": "Escherichia coli R19", "assay": "in vitro antibiotic activity, two fold dilution test (MIC)", "format": "cell-based", "conditions": "Streptomycin Assay Agar with yeast extract, pH 7.9, inoculum approx. 1×10^5", "description": "as §1"}, "[5]": {"system": "Klebsiella pneumoniae ATCC 10031", "assay": "in vitro antibiotic activity, two fold dilution test (MIC)", "format": "cell-based", "conditions": "ATCC10031, Streptomycin Assay Agar with yeast extract, pH 7.9, inoculum approx. 1×10^5", "description": "as §1"}, "Escherichia coli NR 79": {"system": "Escherichia coli NR 79", "assay": "in vitro antibiotic activity, two fold dilution test (MIC)", "format": "cell-based", "conditions": "NR79, Streptomycin Assay Agar with yeast extract, pH 7.9, inoculum approx. 1×10^5", "description": "as §1"}, "[6]": {"system": "Staphylococcus aureus ATCC 6538P", "assay": "in vitro antibiotic activity, two fold dilution test (MIC)", "format": "cell-based", "conditions": "ATCC6538P, Streptomycin Assay Agar with yeast extract, pH 7.9, inoculum approx. 1×10^5", "description": "as §1"}, "Escherichia coli R3": {"system": "Escherichia coli R3", "assay": "in vitro antibiotic activity, two fold dilution test (MIC)", "format": "cell-based", "conditions": "Streptomycin Assay Agar with yeast extract, pH 7.9, inoculum approx. 1×10^5", "description": "as §1"}, "Escherichia coli R16": {"system": "Escherichia coli R16", "assay": "in vitro antibiotic activity, two fold dilution test (MIC)", "format": "cell-based", "conditions": "Streptomycin Assay Agar with yeast extract, pH 7.9, inoculum approx. 1×10^5", "description": "as §1"}, "Escherichia coli 76-2": {"system": "Escherichia coli 76-2", "assay": "in vitro antibiotic activity, two fold dilution test (MIC)", "format": "cell-based", "conditions": "762, Streptomycin Assay Agar with yeast extract, pH 7.9, inoculum approx. 1×10^5", "description": "as §1"}, "[7]": {"system": "Proteus vulgaris ATCC 6897", "assay": "in vitro antibiotic activity, two fold dilution test (MIC)", "format": "cell-based", "conditions": "ATCC6897, Streptomycin Assay Agar with yeast extract, pH 7.9, inoculum approx. 1×10^5", "description": "as §1"}, "[8]": {"system": "Pseudomonas aeruginosa BMH#1", "assay": "in vitro antibiotic activity, two fold dilution test (MIC)", "format": "cell-based", "conditions": "Streptomycin Assay Agar with yeast extract, pH 7.9, inoculum approx. 1×10^5", "description": "as §1"}, "[9]": {"system": "Gram-positive and Gram-negative organisms", "conditions": "Staphylococcus aureus, Klebsiella pneumoniae, Escherchia coli and Proteus species; cited from earlier work"}}}
{"compound": "NC[C@@H]1CC[C@@H](N)[C@@H](O[C@H]2[C@H](O)[C@@H](OC3OCC(O)C(N)C3N)[C@H](N)C[C@@H]2N)O1", "note": "(stereo partly shown) [O-demethyl-3'-deoxyseldomycin factor 5, O-Demethyl-3'-deoxyseldomycin factor 5]", "values": [{"measurement": "MIC", "setting": "[1]", "value": 1.25, "unit": "µg/mL"}, {"measurement": "MIC", "setting": "[2]", "value": 0.01, "unit": "µg/mL"}, {"measurement": "MIC", "setting": "Escherichia coli R5", "value": 0.8, "unit": "µg/mL"}, {"measurement": "MIC", "setting": "Eschericha coli ATCC 26", "value": 0.16, "unit": "µg/mL"}, {"measurement": "MIC", "setting": "[3]", "value": 2.5, "unit": "µg/mL"}, {"measurement": "MIC", "setting": "[4]", "value": 720, "unit": "µg/mL"}, {"measurement": "MIC", "setting": "Escherichia coli R19", "value": 0.16, "unit": "µg/mL"}, {"measurement": "MIC", "setting": "[5]", "value": 0.04, "unit": "µg/mL"}, {"measurement": "MIC", "setting": "Escherichia coli NR 79", "value": 0.16, "unit": "µg/mL"}, {"measurement": "MIC", "setting": "[6]", "value": 0.02, "unit": "µg/mL"}, {"measurement": "MIC", "setting": "Escherichia coli R3", "value": 2.5, "unit": "µg/mL"}, {"measurement": "MIC", "setting": "Escherichia coli R16", "value": 0.4, "unit": "µg/mL"}, {"measurement": "MIC", "setting": "Escherichia coli 76-2", "value": 0.16, "unit": "µg/mL"}, {"measurement": "MIC", "setting": "[7]", "value": 0.31, "unit": "µg/mL"}, {"measurement": "MIC", "setting": "[8]", "value": 0.63, "unit": "µg/mL"}]}
{"compound": "COC1COC(O[C@@H]2[C@@H](O)[C@H](O[C@H]3O[C@H](CN)C[C@H](O)[C@H]3N)[C@@H](N)C[C@H]2N)C(N)C1N", "note": "(stereo partly shown) [Seldomycin factor 5]", "values": [{"measurement": "antibiotic activity", "setting": "[9]", "value": "highly active, broad-spectrum antibiotic effective against both Gram-positive and Gram-negative organisms"}]}
